Laboratory results taken from ChEMBL document CHEMBL1138693, “Synthesis and biological evaluation of piperazine-based derivatives as inhibitors of plasminogen activator inhibitor-1 (PAI-1)” (Bioorg Med Chem Lett, 2004).

Columns and labels:
[1] = target: Plasminogen activator inhibitor 1 (Homo sapiens, UniProt P05121); experiment: Inhibitory concentration against plasminogen activator inhibitor-1 (PAI-1)
[2] = […] of compound in rats after peroral administration; assay type: ADME, organism-based; details: rat, in vivo, po
[3] = Half-life period of compound in rats after peroral administration; assay type: ADME, organism-based; details: rat, in vivo, po
[4] = Bioavailability in rat; assay type: ADME, organism-based; details: in vivo
[5] = Clearance of compound in rats after intravenous administration; assay type: ADME, organism-based; details: rat, in vivo
[6] = Volume of distribution of compound in rats after intravenous administration; assay type: ADME, organism-based; details: rat, in vivo, read-out: Vdss
[7] = Maximal concentration in rats after peroral administration; assay type: ADME, organism-based; design: route oral; details: rat, in vivo, po

Chain of Plasminogen activator inhibitor 1 (P05121 whole entry): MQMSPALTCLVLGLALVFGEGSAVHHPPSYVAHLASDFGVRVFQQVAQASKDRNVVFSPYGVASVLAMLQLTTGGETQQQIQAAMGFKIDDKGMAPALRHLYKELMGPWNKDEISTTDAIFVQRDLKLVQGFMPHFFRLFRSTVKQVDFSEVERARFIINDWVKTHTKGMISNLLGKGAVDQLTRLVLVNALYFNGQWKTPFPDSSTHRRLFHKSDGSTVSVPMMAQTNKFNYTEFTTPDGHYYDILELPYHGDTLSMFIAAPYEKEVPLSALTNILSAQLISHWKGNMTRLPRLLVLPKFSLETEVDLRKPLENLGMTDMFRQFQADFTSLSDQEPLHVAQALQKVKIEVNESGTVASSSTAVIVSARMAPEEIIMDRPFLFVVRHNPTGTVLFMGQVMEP

SMILES	IC50 [1]	also measured
COc1cccc(CNc2ccc(N3CCN(c4cccc(C(F)(F)F)c4)CC3)c(C(F)(F)F)c2)c1Oc1c(C(=O)O)cc(Cl)cc1[N+](=O)[O-]	900 nM	
O=C(O)c1ccc(Oc2cc(N3CCN(c4cccc(C(F)(F)F)c4)CC3)c([N+](=O)[O-])cc2C(F)(F)F)cc1	2100 nM	
O=C(O)C1CCN(c2cc(N3CCN(c4c([N+](=O)[O-])ccc(C(F)(F)F)c4[N+](=O)[O-])CC3)c([N+](=O)[O-])cc2C(F)(F)F)CC1	> 15000 nM	
O=C(O)c1ccc(CNc2cc(N3CCN(c4cccc(C(F)(F)F)c4)CC3)c([N+](=O)[O-])cc2[N+](=O)[O-])cc1	1400 nM	
O=C(O)C1CCN(c2cc(N3CCN(c4ccc(C(F)(F)F)cc4)CC3)c([N+](=O)[O-])cc2C(F)(F)F)CC1	1100 nM	
O=C(O)C1CCCN(c2cc(N3CCN(c4cccc(C(F)(F)F)c4)CC3)c([N+](=O)[O-])cc2C(F)(F)F)C1 (stereo not given)	2800 nM	
O=C(O)C1CCN(c2c([N+](=O)[O-])ccc(F)c2CNc2ccc(N3CCN(c4cccc(C(F)(F)F)c4)CC3)c(C(F)(F)F)c2)CC1	700 nM	
O=C(O)C1CCCN1c1c([N+](=O)[O-])ccc(F)c1CNc1ccc(N2CCN(c3cccc(C(F)(F)F)c3)CC2)c(C(F)(F)F)c1 (stereo not given)	1400 nM	
O=[N+]([O-])c1cc(C(F)(F)F)c(N2CCN(c3cccc(C(F)(F)F)c3)CC2)cc1NC[P+]([O-])(O)O	1800 nM	
O=C(O)C1CCN(c2cccc(C(F)(F)F)c2CNc2ccc(N3CCN(c4cccc(C(F)(F)F)c4)CC3)c(C(F)(F)F)c2)CC1	1700 nM	
COC(=O)c1c(NCc2ccc(C(=O)O)cc2)ccc([N+](=O)[O-])c1N1CCN(c2cccc(C(F)(F)F)c2)CC1	> 15000 nM	
O=C(O)C1CCN(c2cc(N3CCN(Cc4cccc(C(F)(F)F)c4)CC3)c([N+](=O)[O-])cc2C(F)(F)F)CC1	4300 nM	
O=C(O)C1CCN(c2cc(N3CCN(C(=O)c4cccc(C(F)(F)F)c4)CC3)c([N+](=O)[O-])cc2C(F)(F)F)CC1	5000 nM	
O=C(O)C1CCN(c2cc(N3CCN(c4cccc(C(F)(F)F)c4)CC3)c(C(F)(F)F)cc2[N+](=O)[O-])CC1	880 nM	
O=C(O)C1CCN(c2cc(N3CCN(c4ccc(C(F)(F)F)cn4)CC3)c([N+](=O)[O-])cc2C(F)(F)F)CC1	3200 nM	
O=C(O)C1CCN(c2cc(N3CCN(c4cccc(C(F)(F)F)c4)CC3)c([N+](=O)[O-])cc2C(F)(F)F)CC1	910 nM	
O=C(O)CCNc1cc(N2CCN(c3cccc(C(F)(F)F)c3)CC2)c([N+](=O)[O-])cc1C(F)(F)F	900 nM	
O=C(O)C1CCN(c2cc(N3CCN(C(=O)Nc4cccc(C(F)(F)F)c4)CC3)c([N+](=O)[O-])cc2C(F)(F)F)CC1	3500 nM	
O=C(O)c1cccc(Oc2cc(N3CCN(c4cccc(C(F)(F)F)c4)CC3)c([N+](=O)[O-])cc2C(F)(F)F)c1	3700 nM	
O=C(O)C1CCCN1c1cc(N2CCN(c3cccc(C(F)(F)F)c3)CC2)c([N+](=O)[O-])cc1C(F)(F)F (stereo not given)	7900 nM	
COc1cccc(CNc2ccc(N3CCN(c4cccc(C(F)(F)F)c4)CC3)c(C(F)(F)F)c2)c1Oc1ccc([N+](=O)[O-])cc1C(=O)O	500 nM	Tmax [2]: 3 h; half-life [3]: 2.8 h; bioavailability [4]: 43%; clearance [5]: 10.4 mL/min/kg; Vd [6]: 1.33 L/kg; Cmax [7]: 480 nM
CC(C)[C@@H]1CC[C@@H](C)C[C@H]1OCC(=O)Nc1cc(Oc2ccc(C(=O)O)cc2)ccc1[N+](=O)[O-]		Tmax [2]: 3 h; half-life [3]: 3 h; bioavailability [4]: 23%; clearance [5]: 4.84 mL/min/kg; Vd [6]: 0.4 L/kg; Cmax [7]: 160 nM
CC(C)[C@@H]1CC[C@@H](C)C[C@H]1OCC(=O)N1CCN(c2cc(N3CCC(C(=O)O)CC3)c(C(F)(F)F)cc2[N+](=O)[O-])CC1	> 15000 nM	

Further lines, with some results ahead:

IC50 [1]	SMILES	also measured
6100 nM	O=C(O)c1ccc(CNc2ccc([N+](=O)[O-])c(N3CCN(c4cccc(C(F)(F)F)c4)CC3)n2)cc1	
1700 nM	O=C(O)C1CCCN(c2cccc(F)c2CNc2ccc(N3CCN(c4cccc(C(F)(F)F)c4)CC3)c(C(F)(F)F)c2)C1 (stereo not given)	
6700 nM	O=C(O)c1ccc(CNc2ccc([N+](=O)[O-])c(N3CCN(c4cccc(C(F)(F)F)c4)CC3)c2)cc1	
1000 nM	O=C(O)c1ccccc1Oc1ccc([N+](=O)[O-])cc1CNc1ccc(N2CCN(c3cccc(C(F)(F)F)c3)CC2)c(C(F)(F)F)c1	
1500 nM	O=C(O)c1ccc(CNc2cc(N3CCN(c4cccc(C(F)(F)F)c4)CC3)c([N+](=O)[O-])cc2C(F)(F)F)cc1	
900 nM	COc1cccc(CNc2ccc(N3CCN(c4cccc(C(F)(F)F)c4)CC3)c(C(F)(F)F)c2)c1Oc1ccc(C(=O)O)cn1	
3400 nM	O=C(O)c1ccc(CNc2nc(N3CCN(c4cccc(C(F)(F)F)c4)CC3)ccc2[N+](=O)[O-])cc1	
2800 nM	O=C(O)c1ccc(CNc2cc(N3CCN(c4cccc(C(F)(F)F)c4)CC3)ccc2[N+](=O)[O-])cc1	
800 nM	O=C(O)c1cc(Br)ccc1Oc1cccc(F)c1CNc1ccc(N2CCN(c3cccc(C(F)(F)F)c3)CC2)c(C(F)(F)F)c1	
1000 nM	O=C(O)C1CCN(c2cccc(F)c2CNc2ccc(N3CCN(c4cccc(C(F)(F)F)c4)CC3)c(C(F)(F)F)c2)CC1	
1700 nM	O=C(O)c1ccc(CNc2ccc(N3CCN(c4cccc(C(F)(F)F)c4)CC3)c(C(F)(F)F)c2)cc1	
